{"source": "patent US20160175328A1", "about": "“COMPOSITIONS AND TREATMENTS OF HEART FAILURE IN NON-HUMAN MAMMAL ANIMALS” (CEVA SANTE ANIMALE SA, priority 2008, published 2016)", "key": {"[1]": {"test": "Pharmacokinetic study with 22-14C spironolactone, rat", "type": "in vivo", "conditions": "rats, after 4 hour oral administration of spironolactone"}, "[2]": {"test": "Pharmacokinetic study with 22-14C spironolactone, dog", "type": "in vivo", "conditions": "dogs, after 4 hour oral administration of spironolactone"}, "[3]": {"test": "Pharmacokinetic study with 22-14C spironolactone, monkey", "type": "in vivo", "conditions": "monkeys, after 4 hour oral administration of spironolactone"}, "[4]": {"test_system": "dogs in hyperaldosteronemia", "test": "Model for assessing the anti-aldosterone activity (urinary Na/K after aldosterone injection)", "type": "in vivo, dog", "conditions": "for Urine flow rate: aldosterone treatment or aldosterone with spironolactone; for Urine Volume / log (Na × 10/K) / K / Na: N 15; for reversal of the effect of aldosterone on the log ([Na+]urinary×10/[K+]urinary): first 6 hours and 12 hours after dosage; for K / Na: urine", "method": "They have been tattooed in advance for easy identification and situated in stainless steel individual boxes.\nA preliminary study was performed in order to determining the ED80 value for the natriuretic effect of aldosterone on its own.\nThe dogs described above were allocated to different treatment groups (A, B, C, D, and E) and a rest period was left between treatments.\nA negative control group A only received the pharmaceutical excipient. The positive control group B only received 3 μg/kg of aldosterone. […] 200 g food was then given immediately after treatment.\nThe samples were frozen and kept in the dark at approx. −80° C. […] Also, the urine was collected during the time periods ranging from T0-T6h; T6h-T12h and T12h-T24h.\nAfter calibration and count, the quantity of aldosterone present in the sample was thus determined once counted.\nThe sodium and potassium contents in urines were determined using […]. […] According to this method 500 μL plasma were mixed with ethyl acetate (80/20, V/V) as solvents. […] The compounds and the internal standard (i.e. methyl-testosterone) were separated on a Kromasil C18 column.\nA statistical analysis was performed with the STATGRAPHICS Plus version 4.1 software (Manugestics, Inc., Rockville, Md., U.S.A.). The results were presented such as averages±SD; p<0.05 is considered as significant."}, "[5]": {"test_system": "dogs affected by heart failure", "test": "Clinical studies of spironolactone plus ACEI in dogs affected by heart failure", "type": "in vivo, dog", "conditions": "for reduction of the risk of mortality: oral spironolactone 2 mg/kg/day and a ACEI vs placebo and a ACEI; for Survival probability (absence of mortality): over 15 months (14-15 months), Placebo + ACEI 74%", "method": "Multicentre, randomised, double-blind placebo-controlled clinical studies were conducted. An example of study concerned 221 dogs, the diagnosis of heart failure relying on persisting symptoms of cardiomegaly or cardiomyopathy after a first ACEI treatment. […] The 112-dog placebo group received a placebo in combination with an ACEI (for instance benazepril chlorhydrate in a dose of 0.25 mg/kg/day).\nFor gauging the effects of the treatment, both groups were examined five times, i.e., on the first day of treatment (D1), then on the 84th day (D84), […], 252nd day (D252) and 336th day (D336). This examination consisted of a clinical examination of the dogs, urine and blood analyses, and a radiograph. Moreover, an echocardiograph was taken on days D1, D168 and D336.\nAlso, the effects of the treatment were assessed on the symptoms such as cough and mobility, as well as on the prevention of symptoms such as dyspnoea, pulmonary edema, and tolerance to effort."}, "[6]": {"test": "Plasmatic potassium (kalemia) measured during the clinical studies", "type": "in vivo, dog", "conditions": "for Low and transient hyperkalemia (5.9 to 6.4 mmol/L), cases: group on spironolactone", "method": "The plasmatic potassium concentrations (mmol/L) were measured during the treatments. […] Only sporadic case of low or moderate hyperkalemia could be observed and these events were transient. Indeed, these hyperkalemia events could only be observed a couple of times during examinations, and some of them were present on day D1, before the beginning of the treatment."}, "[7]": {"test_system": "patients affected by severe heart failure", "conditions": "25 mg spironolactone with ACEI, loop diuretics, sometimes digoxin; 284 dead of 822; placebo group 46%; cited from earlier work"}, "[8]": {"conditions": "group C, spironolactone dosage 0.8, aldosterone 3 μg/kg"}, "[9]": {"conditions": "group D, spironolactone dosage 2, aldosterone 3 μg/kg"}, "[10]": {"conditions": "group E, spironolactone dosage 8, aldosterone 3 μg/kg"}, "[11]": {"conditions": "group B, dosage 0, aldosterone 3 μg/kg"}}, "note": "Entries after “also recorded” stand apart in the source; their conditions may differ.", "data": [{"compound": "CC(=O)S[C@@H]1CC2=CC(=O)CC[C@]2(C)[C@H]2CC[C@@]3(C)[C@@H](CC[C@@]34CCC(=O)O4)[C@H]12", "note": "[Spironolactone, 7α-acetylthio-3-oxo-17α-pregn-4-ene-21,17-carbolactone]", "values": [{"measurement": "plasma radioactivity percentage", "setting": "[1]", "value": 66, "unit": "%"}, {"measurement": "plasma radioactivity percentage", "setting": "[2]", "value": 76, "unit": "%"}, {"measurement": "plasma radioactivity percentage", "setting": "[3]", "value": 33, "unit": "%"}, {"measurement": "ED50", "setting": "[4]; Canis lupus familiaris, read-out: ED50 (quantity of spironolactone to reach 50% of the maximum response), sigmoid Emax model, log ratio 0 to 6 hours", "value": 1.09, "unit": "mg/kg"}, {"measurement": "Urine flow rate", "setting": "[4]", "value": "not significantly modified"}, {"measurement": "Emax-E0", "setting": "[4]; corresponded to 100% amplitude, E0 (control group) 0.527", "value": 0.5625}, {"measurement": "Urine Volume", "setting": "[4]; [8]", "value": "148 ± 154", "unit": "mL"}, {"measurement": "log (Na × 10/K)", "setting": "[4]; [8]", "value": "0.85 ± 0.24"}, {"measurement": "Urine Volume", "setting": "[4]; [9]", "value": "162 ± 103", "unit": "mL"}, {"measurement": "log (Na × 10/K)", "setting": "[4]; [9]", "value": "1.02 ± 0.21"}, {"measurement": "Urine Volume", "setting": "[4]; [10]", "value": "190 ± 195", "unit": "mL"}, {"measurement": "log (Na × 10/K)", "setting": "[4]; [10]", "value": "1.14 ± 0.18"}, {"measurement": "elimination (excretion) of Na", "setting": "[4]; higher dose of spironolactone, 8 mg/kg", "value": "other increases in the elimination of Na were observed; also recorded: Further increases in Na excretion"}, {"measurement": "Emax (maximum possible effect of spironolactone)", "setting": "[4]; log ([Na+]urinary×10/[K+]urinary), Emax model", "value": 1.089}, {"measurement": "ED50 (quantity of spironolactone to reach 50% of the maximum response)", "setting": "[4]; sigmoid Emax model, log ratio 0 to 6 hours", "value": "1.08 ± 0.28", "unit": "mg/kg"}, {"measurement": "natriuretic responses", "setting": "[4]; spironolactone 0.8 mg/kg", "value": "no effect on certain dogs"}, {"measurement": "natriuretic responses", "setting": "[4]; spironolactone 2 mg/kg", "value": "completely reversed"}, {"measurement": "reversal of the effect of aldosterone on the log ([Na+]urinary×10/[K+]urinary)", "setting": "[4]; spironolactone 2 mg/kg", "value": "complete reversal"}, {"measurement": "reversal of the effect of aldosterone on the log ([Na+]urinary×10/[K+]urinary)", "setting": "[4]; spironolactone 8 mg/kg", "value": "complete reversal"}, {"measurement": "Potassium excretion", "setting": "[4]; spironolactone 0.8, 2 and 8 mg/kg with aldosterone", "value": "spared up to 2 mg per kg but not after that"}, {"measurement": "E(2mg/kg)−E0", "setting": "[4]; spironolactone approx. 2 mg/kg", "value": 0.4933}, {"measurement": "K", "setting": "[4]; [8]", "value": 91.8, "unit": "mmol/L"}, {"measurement": "Na", "setting": "[4]; [8]", "value": "67.6 ± 49.3", "unit": "mmol/L"}, {"measurement": "K", "setting": "[4]; [9]", "value": 74.2, "unit": "mmol/L"}, {"measurement": "Na", "setting": "[4]; [9]", "value": "74.9 ± 40.2", "unit": "mmol/L"}, {"measurement": "K", "setting": "[4]; [10]", "value": 88.9, "unit": "mmol/L"}, {"measurement": "Na", "setting": "[4]; [10]", "value": "111.1 ± 67.9", "unit": "mmol/L"}, {"measurement": "morbidity-mortality rates", "setting": "[5]; 14-15 month, spironolactone 2 mg/kg/day + ACEI, against 25%", "value": 11, "unit": "%"}, {"measurement": "mortality rates", "setting": "[5]; after 14-15 months, spironolactone 2 mg/kg/day + ACEI, reference group 20%", "value": 6, "unit": "%"}, {"measurement": "survival probabilities", "setting": "[5]; dogs treated as of stage I of heart failure, approx. 3.5 years, spironolactone 2 mg/kg/day + ACEI, against 53%", "value": 100, "unit": "%"}, {"measurement": "survival probabilities", "setting": "[5]; duration of 3 years, spironolactone 2 mg/kg/day + ACEI, reference group 64%", "value": 80, "unit": "%"}, {"measurement": "clinical symptoms (cough, mobility, dyspnoea, pulmonary edema, tolerance to effort, syncopes)", "setting": "[5]; group of dogs on spironolactone vs control group", "value": "improved symptoms such as cough and mobility were observed"}, {"measurement": "reduction of the risk of mortality", "setting": "[5]; over 3 years", "value": 59, "unit": "%"}, {"measurement": "reduction of the risk of mortality", "setting": "[5]; over 14-15 months", "value": 65, "unit": "%"}, {"measurement": "Survival probability (absence of mortality)", "setting": "[5]; spironolactone 2 mg/kg/day + ACEI, 109 dogs", "value": 91, "unit": "%"}, {"measurement": "Survival probability (absence of mortality)", "setting": "[5]; spironolactone 2 mg/kg/day + ACEI, 109 dogs, listed as spironolactone", "value": 91, "unit": "%"}, {"measurement": "“survival” probability (absence of morbi-mortality)", "setting": "[5]; over 15 months, spironolactone 2 mg/kg/day + ACEI, 109 dogs, Placebo + ACEI 67%", "value": 84, "unit": "%"}, {"measurement": "Low and transient hyperkalemia (5.9 to 6.4 mmol/L), cases", "setting": "[6]; 2-month clinical study (4 analyses)", "value": 3}, {"measurement": "Low and transient hyperkalemia (5.9 to 6.4 mmol/L), cases", "setting": "[6]; 3-month clinical study (6 analyses)", "value": 5}, {"measurement": "Low and transient hyperkalemia (5.9 to 6.4 mmol/L), cases", "setting": "[6]; 12-month clinical study (5 analyses)", "value": 3}, {"measurement": "variation in kalemia", "setting": "[6]; daily dose of spironolactone of 2 mg/kg/day, dogs", "value": "did not cause any variation in kalemia or only low transient variations in kalemia"}, {"measurement": "progression of average plasmatic potassium (kalemia), FIG. 9", "setting": "[6]; spironolactone 2 mg/kg/day and ACEI vs placebo and ACEI", "value": "stable kalemia"}, {"measurement": "dead (mortality) in the spironolactone group", "setting": "[7]", "value": 35, "unit": "%"}]}, {"compound": "C[C@]12CCC(=O)C=C1CC[C@@H]1[C@@H]2[C@@H](O)C[C@]2(C=O)[C@@H](C(=O)CO)CC[C@@H]12", "note": "[Aldosterone]", "values": [{"measurement": "increase of the urinary levels of K", "setting": "[4]; aldosterone on its own", "value": 25, "unit": "%"}, {"measurement": "reduction of the elimination of Na", "setting": "[4]; aldosterone on its own", "value": "approx. 65%"}, {"measurement": "Urine flow rate", "setting": "[4]", "value": "not significantly modified"}, {"measurement": "Urine Volume", "setting": "[4]; [11]", "value": "115 ± 109", "unit": "mL"}, {"measurement": "log (Na × 10/K)", "setting": "[4]; [11]", "value": "0.70 ± 0.22"}, {"measurement": "K", "setting": "[4]; [11]", "value": 116.6, "unit": "mmol/L"}, {"measurement": "Na", "setting": "[4]; [11]", "value": "56.3 ± 29.9", "unit": "mmol/L"}]}]}
